Data: patent US7572765B2, “Conformationally constrained parathyroid hormone (PTH) analogs” (The General Hospital Corporation, priority 2001, dated 2009)
Square brackets hold non-standard residues; d marks the D form. Ends that are not written are not given here. Peptide text beside a SMILES is read from it. hArg = N=C(N)NCCCC[C@H](N)C(=O)O; Nle = CCCC[C@H](N)C(=O)O; Aib = CC(C)(N)C(=O)O

Columns and labels:
human P1R [1] = target: T1, human P1R (Homo sapiens, UniProt Q03431); assay: cAMP stimulation in HKRK-B28 cells; assay type: cell-based; details: for cAMP EMax(obs.): basal 4.0 ± 0.1 pmole/well not subtracted
T1 construct: expressed in transfected cells; host or cells: HKRK-B28 (porcine kidney LLC-PK1, stably transfected)
T1 sequence (Q03431 27-593): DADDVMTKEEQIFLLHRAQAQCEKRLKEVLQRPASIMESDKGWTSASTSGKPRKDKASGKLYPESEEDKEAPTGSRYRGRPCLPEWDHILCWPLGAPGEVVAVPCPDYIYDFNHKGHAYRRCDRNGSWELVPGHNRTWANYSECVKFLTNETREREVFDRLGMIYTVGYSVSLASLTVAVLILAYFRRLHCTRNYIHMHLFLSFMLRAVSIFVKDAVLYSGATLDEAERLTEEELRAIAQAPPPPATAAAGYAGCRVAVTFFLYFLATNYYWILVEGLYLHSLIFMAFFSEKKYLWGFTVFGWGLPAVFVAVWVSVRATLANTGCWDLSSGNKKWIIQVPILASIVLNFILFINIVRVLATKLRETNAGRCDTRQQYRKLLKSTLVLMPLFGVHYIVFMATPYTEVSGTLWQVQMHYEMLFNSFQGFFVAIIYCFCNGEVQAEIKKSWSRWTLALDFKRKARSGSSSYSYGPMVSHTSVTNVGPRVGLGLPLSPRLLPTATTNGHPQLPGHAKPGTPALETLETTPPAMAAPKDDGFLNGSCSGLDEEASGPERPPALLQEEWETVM
Protocol: (§1) Cell Culture. The cell line HKRK-B28 (Takasu, H., et al., J. Bone Miner. Res. 14:11-20 (1999)) was derived from the porcine kidney cell line, LLC-PK1 by stable transfection with plasmid DNA encoding the human P1R and expresses ˜280,000 receptors per cell. These cells, as well as COS-7 cells and SaOS-2-B10 cells, were cultured at […] in T-75 flasks ([…]) in Dulbecco's modified Eagle's medium (DMEM) supplemented with fetal bovine serum (10%), penicillin G (20 units/ml), streptomycin sulfate (20 μg/ml) and amphotericin B (0.05 μg/ml) in a humidified atmosphere containing 5% CO2. Stock solutions of EGTA/trypsin and antibiotics were from GIBCO; fetal bovine serum was from Hyclone Laboratories (Logan, Utah). COS-7 cells sub-cultured in 24-well plates were transfected with plasmid DNA (200 ng per well) encoding the wild-type human P1R or truncated human P1R deleted for residues (24-181) (Shimizu, M., et al., J. Biol. Chem. 275:21836-21843 (2000)) that was purified by cesium chloride/ethidium bromide density gradient centrifugation, and FuGENE 6 transfection reagent (Roche Indianapolis Ind.) according to the manufacturer's recommended procedure. All cells, in 24-well plates, were treated with fresh media and shifted to 33° C. for 12 to 24 h prior to assay.
(§2) cAMP Stimulation. Stimulation of cells with peptide analogs was performed in 24-well plates. Cells were rinsed with 0.5 mL of binding buffer (50 mM Tris-HCI, […], 5 mM KCl, 2 mM CaCl2, 5% heat-inactivated horse serum, 0.5% fetal bovine serum, adjusted to pH 7.5 with HCl) and treated with 200 μL of cAMP assay buffer (Delbecco's modified Eagle's medium containing 2 mM 3-isobutyl-1-methylxanthine, 1 mg/mL bovine serum albumin, 35 mM Hepes-NaOH, pH 7.4) and 100 μL of binding buffer containing varying amounts of peptide analog (final volume=300 μL). The medium was removed after incubation for 30 to 60 minutes at room temperature, and the cells were frozen on dry ice, lysed with 0.5 mL 50 mM HCl, and refrozen ([…]). The cAMP content of the diluted lysate was determined by radioimmunoassay. The EC50 response values were calculated using nonlinear regression (see below).
(§3) Data Calculation. Calculations were performed using Microsoft® Excel. Nonlinear regression analyses of binding and cAMP dose-response data were performed using the four-parameter equation: yp=Min+[(Max−Min)/(1+(IC50/x)^slope)]. The Excel Solver function was utilized for parameter optimization, as described previously (Carter, P. H., et al., Endocrinology 140: 4972-4981 (1999); Bowen, W. P., and Jerman, J. C., Trends in Pharmacol. Sci. 16: 413-417 (1995)). Differences between paired data sets were statistically evaluated using a one-tailed Student's t-test, assuming unequal variances for the two sets.

human P1R [2] = target: T1, human P1R; assay: Competition binding in HKRK-B28 cells
Protocol: as §1
Competition Binding. Binding reactions were performed with HKRK-B28 cells or in COS-7 cells in 24-well plates. The cells were rinsed with 0.5 mL of binding buffer, and then treated successively with 100 μL binding buffer, 100 μL of binding buffer containing various amounts of unlabeled competitor ligand, and 100 μL of binding buffer containing ca. 100,000 cpm of ^125I-[M]PTH(1-21) or ^125I-[Aib^1,3,M]PTH(1-21)} (ca. 26 fmol; final volume=300 μL). Incubations were 4 to 6 h at 4° C., at which time near equilibrium conditions were attained. Cells were then placed on ice, the binding medium was removed, and the monolayer was rinsed three times with 0.5 mL of cold binding buffer. The cells were subsequently lysed with 0.5 mL […] and counted for radioactivity. For each tracer and in each experiment, the non-specific binding was determined as the radioactivity that bound in the presence of the same unlabeled peptide at a concentration of 1 μM, and was ˜1% of total radioactivity added for each tracer. The maximum specific binding (B0) was the total radioactivity bound in the absence of competing ligand, corrected for nonspecific binding, and for each tracer, ranged from 8% to 20% of the total radioactivity added. Nonlinear regression was used to calculate binding IC50 values (see below). Scatchard transformations of homologous competition binding data derived from studies with 26 fmol of ^125I-[Aib^1,3,M]PTH(1-21) were employed for estimations of apparent equilibrium dissociation constant (kDapps) and total number of ligand binding sites (Bmax), assuming a single class of binding sites and equal affinities of the iodinated and non iodinated ligand.
as §3
The P1R-binding properties of these analogs were assayed in competition studies performed in […]. In previous studies, PTH(1-14) binding could not be detected using ^125I-PTH(1-34) and related N-terminally intact and relatively unmodified radioligands (Luck, M. D., et al., Molecular Endocrinology 13:670-680 (1999)). […]

[3] = target: T2, PTH-1 receptor endogenously expressed in SaOS-2 cells (Homo sapiens, UniProt Q03431); assay: cAMP stimulation in SaOS-2 cells; assay type: cell-based; details: for EMAX(obs.): cAMP, basal 6.4 ± 0.8
T2 construct: endogenously expressed relatively low levels of the PTH-1 receptor; endogenous in cells; host or cells: SaOS-2 (SaOS-2-B10) human osteosarcoma cells
T2 sequence (Q03431 27-593): T1 sequence (Q03431 27-593)
Protocol: as §1, §2, §3
The number of PTH-1 receptors expressed on the surface of the PTH target cells in bone or kidney is uncertain, but it is likely to be considerably lower than that found in HKRK-B28 cells. Therefore, several of the Aib-mounted PTH analogs were evaluated using SaOS-2 cells.

[4] = target: T3, P1R-delNt, truncated human P1R deleted for residues (24-181) (Homo sapiens, UniProt Q03431); assay: cAMP stimulation in COS-7 cells expressing hP1R-delNt; assay type: cell-based; details: hP1R-delNT
T3 construct: expressed in transfected cells; host or cells: COS-7 (transient, FuGENE 6)
T3 sequence (Q03431 with tags, fused parts or gaps limits assumed): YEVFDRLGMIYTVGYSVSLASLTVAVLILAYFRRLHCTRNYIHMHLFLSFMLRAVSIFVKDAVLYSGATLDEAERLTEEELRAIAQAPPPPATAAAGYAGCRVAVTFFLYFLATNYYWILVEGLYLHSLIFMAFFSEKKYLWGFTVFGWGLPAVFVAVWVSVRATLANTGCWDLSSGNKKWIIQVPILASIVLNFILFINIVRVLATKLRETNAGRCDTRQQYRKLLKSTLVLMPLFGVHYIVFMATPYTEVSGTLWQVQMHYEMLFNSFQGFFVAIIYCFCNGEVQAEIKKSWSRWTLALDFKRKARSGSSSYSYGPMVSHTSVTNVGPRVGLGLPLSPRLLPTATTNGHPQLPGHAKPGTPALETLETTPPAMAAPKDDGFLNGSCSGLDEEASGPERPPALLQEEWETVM
Protocol: as §1, §2, §3
The possibility that the activity-enhancing effects of the Aib substitutions at positions 1 and 3 were mediated through the juxtamembrane (J) region of the receptor was investigated in COS-7 cells transiently transfected with P1R-delNt. P1R-delNt was a truncated P1R that lacked most of the amino-terminal extracellular domain.

[5] = target: T3, P1R-delNt, truncated human P1R deleted for residues (24-181); assay: Competition binding in COS-7 cells expressing hP1R-delNt; details: direct binding of the radioligand
[6] = HKRK-B28 cells, tracer 125I-[M]PTH(1-21)amide, 4 h at 4° C., N.B. = no binding detected at 10 μm peptide

Compound	cAMP EMax(obs.) (human P1R [1]) [pmole/well]	fold improvement of apparent binding affinity relative to [M]PTH(1-14) (human P1R [2]; HKRK-B28 cells)	fold more potent in stimulating cAMP formation than [M]PTH(1-14) [3] [fold]	EMAX(obs.) [3] [pmole/well]	EC50 (human P1R [1]) [nM]	other results
CC[C@H](C)[C@H](NC(=O)[C@H](CCC(=O)O)NC(=O)[C@H](C)NC(=O)[C@@H](NC(=O)C(C)(C)N)C(C)C)C(=O)N[C@@H](CCC(N)=O)C(=O)N[C@@H](CC(C)C)C(=O)N[C@@H](CCSC)C(=O)N[C@@H](Cc1c[nH]cn1)C(=O)N[C@@H](CCC(N)=O)C(=O)N[C@@H](CCCCNC(=N)N)C(=O)N[C@@H](C)C(=O)N[C@@H](CCCCN)C(=O)N[C@@H](Cc1c[nH]c2ccccc12)C(N)=O [Aib-1, AibValAlaGluIleGlnLeuMetHisGlnHarAlaLysTrp] (H-[Aib]VAEIQLMHQ[hArg]AKW-NH2)	273 ± 6	approximately 10 fold	15	340 ± 30	–	–
CC[C@H](C)[C@H](NC(=O)[C@H](CCC(=O)O)NC(=O)C(C)(C)NC(=O)[C@@H](NC(=O)[C@H](C)N)C(C)C)C(=O)N[C@@H](CCC(N)=O)C(=O)N[C@@H](CC(C)C)C(=O)N[C@@H](CCSC)C(=O)N[C@@H](Cc1c[nH]cn1)C(=O)N[C@@H](CCC(N)=O)C(=O)N[C@@H](CCCCNC(=N)N)C(=O)N[C@@H](C)C(=O)N[C@@H](CCCCN)C(=O)N[C@@H](Cc1c[nH]c2ccccc12)C(N)=O [Aib-3, AlaValAibGluIleGlnLeuMetHisGlnHarAlaLysTrp] (H-AV[Aib]EIQLMHQ[hArg]AKW-NH2)	269 ± 7	approximately 10 fold	8	330 ± 30	–	–
CC[C@H](C)[C@H](NC(=O)[C@H](CCC(=O)O)NC(=O)C(C)(C)NC(=O)[C@@H](NC(=O)C(C)(C)N)C(C)C)C(=O)N[C@@H](CCC(N)=O)C(=O)N[C@@H](CC(C)C)C(=O)N[C@@H](CCSC)C(=O)N[C@@H](Cc1c[nH]cn1)C(N)=O [[Aib^1,3]PTH(1-9)] (H-[Aib]V[Aib]EIQLMH-NH2)	10 ± 1	–	–	–	> 10000	stimulation of cAMP accumulation (in words) (human P1R [1]): Little or no stimulation of cAMP accumulation; Binding IC50 (human P1R [2]; [6]): did not bind detachably; Binding IC50 (human P1R [2]; HKRK-B28 cells, tracer 125I-[M]PTH(1-21)amide, 4 h at 4° C., N.B. = no binding detected at 10 μm peptide, listed as [Aib^1,3]PTH (1-9)): N.B.
CC[C@H](C)[C@H](NC(=O)[C@H](CCC(=O)O)NC(=O)[C@H](C)NC(=O)[C@@H](NC(=O)[C@H](C)N)C(C)C)C(=O)N[C@@H](CCC(N)=O)C(=O)N[C@@H](CC(C)C)C(=O)N[C@@H](CCSC)C(=O)N[C@@H](Cc1cnc[nH]1)C(=O)N[C@@H](CCC(N)=O)C(=O)N[C@@H](CCCCN=C(N)N)C(=O)N[C@@H](C)C(=O)N[C@@H](CCCCN)C(=O)N[C@@H](Cc1c[nH]c2ccccc12)C(N)=O [[M]PTH(1-14), [Ala^3,12,Gln^10,Har^11,Trp^14]PTH(1-14)amide, reference compound] (H-AVAEIQLMHQ[hArg]AKW-NH2)	–	–	–	–	100 ± 20	IC50 (human P1R [2]; [6]): 1.3e-05 M; EC50 [4]: 40 ± 2 nM
^125I-[M]PTH(1-21): radioiodinated [M]PTH(1-21) tracer radioligand (AVAEIQL[Nle]HQ[hArg]AKWLASVRRY-NH2; also: 125I radiolabel, position not given here) [reference compound]	–	–	–	–	–	binding of radiolabeled peptide to HKRK-B28 cells (in words) (human P1R [2]; direct binding of the radioligand): bound adequately; binding of radioligand to P1R-delNt (in words) [5]: did not bind detectably
